Measurements reported in patent publication US10227331B2 (priority 2015, dated 2019).
Like-named read-outs stand apart in the source and are kept apart here.

Experiments:
[1] = test system: Escherichia coli expressing NDM-1 (CLB30005, CLB30016); assay type: cell-based; conditions: with imipenem 1 μg/ml, 95% inhibition of bacterial growth; for Escherichia coli MITC95: NDM-1 (CLB30016)
Procedure, shortened: (§1)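 Clinical strains grown overnight on blood agar, then diluted 1:100 in 1.1× CAMHB and exposed to test compound with imipenem at 1 μg/ml. Incubation was 22–24 h at 35° C; growth was read by absorbance to find the compound concentration restoring imipenem susceptibility.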

[2] = test system: Serratia marcescens expressing IMP-1 (CL5741); assay type: cell-based; conditions: with imipenem 1 μg/ml, 95% inhibition of bacterial growth; for Serratia marcescens MITC95: IMP-1 (CL5741)
Procedure, shortened: as §1

[3] = test system: Klebsiella pneumoniae expressing VIM-1 (IHMA599644); assay type: cell-based; conditions: with imipenem 1 μg/ml, 95% inhibition of bacterial growth; for Klebsiella pneumoniae MITC95: VIM-1 (IHMA599644)
Procedure, shortened: as §1

[4] = test system: P. aeruginosa expressing IMP-1, efflux− (MB9799); assay: Efflux: concentration of MBL inhibitor which restores susceptibility to imipenem; assay type: cell-based, Pseudomonas aeruginosa; conditions: imipenem at 2 μg/mL, in the presence of a class A, C, D serine β-lactamase inhibitor closely related to relebactam
Excerpt: (§2) The strain background is Pseudomonas aeruginosa PAO1.

IMP-1 = IMP-1 (Serratia marcescens, UniProt P52699); assay: biochemical; assay type: biochemical
IMP-1, sequence (P52699 whole entry, looked up, species assumed): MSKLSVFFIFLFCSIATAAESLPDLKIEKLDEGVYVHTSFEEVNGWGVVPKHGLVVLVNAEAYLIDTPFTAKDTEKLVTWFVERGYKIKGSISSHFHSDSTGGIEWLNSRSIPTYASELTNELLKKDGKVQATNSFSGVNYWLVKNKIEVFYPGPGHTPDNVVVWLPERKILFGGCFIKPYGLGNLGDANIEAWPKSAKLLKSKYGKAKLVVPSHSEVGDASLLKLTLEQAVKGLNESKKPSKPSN
Procedure, shortened: (§3)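 Fluorescence assay of metallo-β-lactamase activity using CCF2-FA, a cephalosporin-linked 7-hydroxycoumarin–fluorescein substrate. Inhibitor, enzyme and substrate were incubated together for 2 hours at 25° C. IC50 came from a 4-parameter fit of inhibition versus inhibitor concentration.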

NDM-1 = NDM-1 (Klebsiella pneumoniae, UniProt C7C422); assay: biochemical; assay type: biochemical; conditions: CCF2-FA substrate, 2 hours at 25° C; read-out: NDM-1 IC50
NDM-1, sequence (C7C422 whole entry, looked up, species assumed): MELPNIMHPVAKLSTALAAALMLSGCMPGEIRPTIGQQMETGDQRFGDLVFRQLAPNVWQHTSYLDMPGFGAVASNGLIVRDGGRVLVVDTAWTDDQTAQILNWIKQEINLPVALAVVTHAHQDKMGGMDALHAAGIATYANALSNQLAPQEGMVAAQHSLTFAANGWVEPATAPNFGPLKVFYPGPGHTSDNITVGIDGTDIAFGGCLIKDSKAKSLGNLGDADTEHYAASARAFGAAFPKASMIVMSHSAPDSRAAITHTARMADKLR
Procedure, shortened: as §3

[5] = test system: P. aeruginosa expressing IMP-1, efflux+ (MB9798); assay type: cell-based, Pseudomonas aeruginosa; conditions: for P. aeruginosa expressing IMP-1, efflux+ (MB9798) MITC95: imipenem at 2 μg/mL, in the presence of a class A, C, D serine β-lactamase inhibitor closely related to relebactam; for Efflux ratio: ratio MITC95 PA_9798/MITC95 PA_9799
Excerpt: as §2

VIM-1 = VIM-1 (Pseudomonas aeruginosa (strain ATCC 15692 / DSM 22644 / CIP 104116 / JCM 14847 / LMG 12228 / 1C / PRS 101 / PAO1), UniProt A0A0F7KYQ8); assay: biochemical; conditions: CCF2-FA substrate, 2 hours at 25° C
Procedure, shortened: as §3

[6] = CCF2-FA substrate, 2 hours at 25° C, read-out: IMP-1 IC50

Row | SMILES | Escherichia coli expressing NDM-1 (CLB30016) MITC95 [1] | Serratia marcescens expressing IMP-1 (CL5741) MITC95 [2] | Klebsiella pneumoniae expressing VIM-1 (IHMA599644) MITC95 [3] | P. aeruginosa expressing IMP-1, efflux− (MB9799) MITC95 [4] | IC50 (IMP-1; [6]) | IC50 (NDM-1) | P. aeruginosa expressing IMP-1, efflux+ (MB9798) MITC95 [5] | Efflux ratio [5] | IC50 (VIM-1) | Escherichia coli MITC95 [1] | Serratia marcescens MITC95 [2] | Klebsiella pneumoniae MITC95 [3] | IC50 (IMP-1)
1 | Nc1ncccc1-c1ccc(S(=O)(=O)C2CNC2)c(S(N)(=O)=O)c1-c1nn[nH]n1 [Example 219, 3-(2-aminopyridin-3-yl)-6-(azetidin-3-ylsulfonyl)-2-(2H-tetrazol-5-yl) benzenesulfonamide] | 0.125 µM | 0.6406 µM | 1.281 µM | 1.281 µM | 5.66 nM | 0.647 nM | 6.25 µM | 4.88 | 0.52 nM |  |  |  | 
2 | Nc1nc2c(-c3ccc([S+]([O-])C4CNC4)c(S(N)(=O)=O)c3-c3nn[nH]n3)cccc2[nH]1 (stereo not drawn) [Example 13, 3-(2-amino-1H-benzo[d]imidazol-4-yl)-6-(azetidin-3-ylsulfinyl)-2-(2H-tetrazol-5-yl)benzenesulfonamide] | 0.3906 µM | 3.125 µM | 1.563 µM | 1.563 µM | 50.8 nM | 0.619 nM | 6.25 µM | 4.00 | 6.61 nM |  |  |  | 
3 | NS(=O)(=O)c1c(S(=O)(=O)C2CNC2)ccc(-c2ccc3cnccc3c2)c1-c1nnn[nH]1.O=C(O)C(F)(F)F [Example 116, 3-((4-(isoquinolin-6-yl)-2-sulfamoyl-3-(1H-tetrazol-5-yl)phenyl)sulfonyl)azetidin-1-ium 2,2,2-trifluoroacetate] | 1.563 µM | 3.125 µM | 3.125 µM | 1.563 µM | 0.722 nM | 0.199 nM | 25 µM | 15.99 | 0.177 nM |  |  |  | 
4 | Nc1nc2c(-c3ccc(S(=O)(=O)C4CCNCC4)c(S(N)(=O)=O)c3-c3nn[nH]n3)cccc2s1 [Example 315, 3-(2-aminobenzo[d]thiazol-4-yl)-6-(piperidin-4-ylsulfonyl)-2-(2H-tetrazol-5-yl)benzenesulfonamide] |  |  |  | 0.7813 µM |  | 0.113 nM | 0.7813 µM | 1.00 | 0.251 nM | 1.563 µM | 1.563 µM | 3.125 µM | 0.249 nM
5 | NS(=O)(=O)c1c(S(=O)(=O)C2CCNCC2)ccc(-c2cccc3c2CNC3=O)c1-c1nn[nH]n1 [Example 318, 3-(1-oxoisoindolin-4-yl)-6-(piperidin-4-ylsulfonyl)-2-(2H-tetrazol-5-yl)benzenesulfonamide] |  |  |  | 6.25 µM | 27.1 nM | 1.95 nM | 25 µM | 4.00 | 0.517 nM | 12.5 µM | 25 µM | 12.5 µM | 
6 | N#CC1(c2ccc(-c3ccc(S(=O)(=O)CCN)c(S(N)(=O)=O)c3-c3nnn[nH]3)cn2)CNC1.O=C(O)C(F)(F)F [Example 132, 2-((4-(6-(3-cyanoazetidin-3-yl)pyridin-3-yl)-2-sulfamoyl-3-(1H-tetrazol-5-yl)phenyl)sulfonyl)ethanaminium 2,2,2-trifluoroacetate] | 0.7813 µM | 1.563 µM | 3.125 µM | 1.563 µM | 1.49 nM | 3.5 nM | 6.25 µM | 4.00 | 1.55 nM |  |  |  | 
7 | NS(=O)(=O)c1c(S(=O)(=O)C2CNC2)ccc(-c2ccc(NS(=O)(=O)C3CC3)cc2)c1-c1nn[nH]n1 [Example 244, 4-(Azetidin-3-ylsulfonyl)-4′-(cyclopropanesulfonamido)-2-(2H-tetrazol-5-yl)-[1,1′-biphenyl]-3-sulfonamide] | 3.125 µM | 3.125 µM | 6.25 µM | 1.563 µM | 0.144 nM | 0.156 nM | 6.25 µM | 4.00 | 0.112 nM |  |  |  | 
8 | Nc1nc2c(-c3ccc(S(=O)(=O)[C@@H]4CCNC4)c(S(N)(=O)=O)c3-c3nn[nH]n3)cccc2o1 [Example 189, 3-(2-aminobenzo[d]oxazol-4-yl)-6-((R)-pyrrolidin-3-ylsulfonyl)-2-(2H-tetrazol-5-yl)benzenesulfonamide] | 1.563 µM | 1.563 µM | 1.563 µM | 0.7813 µM | 0.332 nM | 0.219 nM | 0.7813 µM | 1.00 | 0.419 nM |  |  |  | 
9 | Cc1ccc(-c2ccc(S(=O)(=O)C3CNC3)c(S(N)(=O)=O)c2-c2nn[nH]n2)c2nc(N)sc12 [Example 32, 3-(2-amino-7-methylbenzo[d]thiazol-4-yl)-6-(azetidin-3-ylsulfonyl)-2-(2H-tetrazol-5-yl)benzenesulfonamide] | 0.3906 µM | 0.7813 µM | 1.563 µM | 0.7813 µM | 0.138 nM | 0.0331 nM | 1.563 µM | 2.00 | 0.106 nM |  |  |  | 
10 | NCCS(=O)(=O)c1ccc(-c2ccc3nc(N)oc3c2)c(-c2nn[nH]n2)c1S(N)(=O)=O [Example 75, 3-(2-aminobenzo[d]oxazol-6-yl)-6-(2-aminoethylsulfonyl)-2-(2H-tetrazol-5-yl)benzenesulfonamide] | 1.563 µM | 1.563 µM | 1.563 µM | 0.7813 µM | 0.433 nM | 0.5 nM | 6.25 µM | 8.00 | 0.283 nM |  |  |  | 
11 | NCCS(=O)(=O)c1ccc(-c2cccc3cn[nH]c23)c(-c2nnn[nH]2)c1S(N)(=O)=O [Example 298, 6-((2-aminoethyl)sulfonyl)-3-(1H-indazol-7-yl)-2-(1H-tetrazol-5-yl) benzenesulfonamide] |  |  |  | 0.7813 µM | 0.3 nM | 0.425 nM | 1.563 µM | 2.00 | 0.257 nM | 0.7813 µM | 1.563 µM | 1.563 µM | 
